Results as given in patent publication US20180318383A1, “PEPTIDE HAVING NEURONAL LOSS PREVENTION AND REGENERATION EFFECTS, AND COMPOSITION CONTAINING SAME” (GEMVAX & KAEL CO., LTD., priority 2015, published 2018).

Columns and labels:
NSCs [1] = experiment: Cell migration assay (QCM-24-well kit); assay type: cell-based, rat; details: 20 μM Aβ25-35 + PEP1 1, 10, 50 μM
Procedure: A cell migration assay was carried out using a QCM-24-well cell migration kit. Briefly, 20 μM Aβ25-30 and each concentration of PEP1 (1, 10 or 50 μM) were added to a lower chamber, and 3×10^5 NSCs were cultured in an upper chamber at 37° C. for 24 hours. NSCs migrated toward the membrane, and after staining to observe the number of migrating cells, absorbance was measured at 560 nm.

NSCs [2] = experiment: ROS production in NSCs (DCFH-DA staining); assay type: cell-based, rat; details: 20 μM Aβ25-35 + PEP1, 48 hours, DCF fluorescence
Procedure: NSCs were treated with 20 μM Aβ25-30 for 48 hours and stained with DCFH-DA for 15 minutes to measure ROS. NSCs were treated with a varying concentration of PEP1 and 20 μM Aβ25-30 for 48 hours. After culturing, the cells were stained with 10 μM DCFH-DA at 37° C. for 15 minutes and washed with PBS three times. DCFH-DA freely passed through the cell membrane, and then was degraded into DCF by an esterase present in the cells. Therefore, a DCF fluorescent intensity refers to an intracellular hydrogen peroxide (ROS) level. DCF accumulation was evaluated using a reader according to an absorbance at 490 nm and a reference absorbance at 690 nm. Flow cytometry was observed and analyzed using an Accuri C6 flow cytometer.

NSCs [3] = experiment: Western blotting and immunostaining of intracellular proteins in NSCs; assay type: cell-based, rat
Excerpt: For western blotting, the following antibodies were used: Ki67 (1:200 Abcam), P85a (1:1000, Millipore), pAKT (ser 473, 1:500, Cell Signaling Technology), GSK-3b (ser 9, 1:1000. Santa Cruz Biotechnology), HSTF-1 (1:1000, Santa Cruz Biotechnology), anti-B cell lymphoma-2 (1:1000, Cell Signaling Technology), HMGB-1 (1:500, Cell Signaling Technology), Bax (1:1000, Cell Signaling Technology), Cytosolic cytochrome C (1:200, Cell Signaling Technology), Cleaved caspase 3 (Asp175, 1: 1000, Cell Signaling Technology), c-Myc (1: 1000, Cell Signaling Technology), GFP (1: 1000, Cell Signaling Technology), hTERT (1:500, Santa Cruz Biotechnology), and rTERT (1:500, Santa Cruz Biotechnology).
To confirm an intracellular signaling system, western blotting was performed after 48-hour treatment.
To obtain the mitochondria and a cytoplasmic protein, mitochondria/intracellular protein isolation kits were used (Abcam). All blots were observed using an ECL solution, and observed images were analyzed using an analysis program.
Immunostaining was carried out to confirm intracellular expression and locations. For immunostaining, the following antibodies were used: Ki67 (1:100 Abcam), rabbit anti-doublecortin (1 mg/mL; Abcam), rabbit anti-glial fibrillary acidic protein (GFAP) (1:5000; Abcam), rabbit anti-Tuj1 (1 mg/mL; Abcam), mouse anti-GalC (1 mg/mL; Millipore), and rabbit anti-HMGB1 (1:100; Cell Signaling Technology).
Data was observed using an Olympus fluorescence microscope, and suitable fluorescence was used.

GalC = GalC expression in 3XTg-AD mice (western blotting, immunostaining); assay type: in vivo; details: hippocampus and whole brain; s.c. three times a week for two months; vs control and Donepezil, same amount
Procedure: To test the efficacy of PEP1 on AD, AD transgenic mice (3XTg-AD) were purchased from Jackson Laboratory. Genetic characteristics of the transgenic mice are as follows: B6; 129-Psen1tm1Mpm Tg(APPSwe, tauP301L)1Lfa/Mmjax. […] One week after mice were confirmed as pregnant, new mice were delivered and weaned for 3 weeks. Two weeks later, mature mice were obtained.
During the preliminary breeding and the entire period of the experiment, a temperature was maintained at 23±2° C. and a relative humidity was maintained at 60±10%, and then the mice were raised under a 12-hour dark/light cycle. Experimental animals were divided into five groups, and each group included 10 animals. The divided experimental groups are as follows. […]
The PEP1, physiological saline, donepezil and scramble peptide were subcutaneously injected at each concentration three times a week for two months from the age of 12 months, and then two months after the injection, cognitive/memory behavior tests (passive avoidance test and Y maze test) were performed to examine a degree of improvement in cognitive function and memory function. After the brain was extracted to separate the hippocampus, the amounts of amyloid beta in the hippocampus and the whole brain, and the amounts of an amyloid beta oligomer and NFT generated by tau hyperphosphorylation were determined by western blotting and immunostaining. […]

[4] = numerous clinical trials targeting various diseases; cited from earlier work

## EARPALLTSRLRFIPK (homo sapiens) [PEP1, hTERT-derived peptide consisting of 16 amino acids, telomerase location [611-626]]
NSCs [1]
  migration ability of NSCs: effectively restored migration
NSCs [2]
  amount of ROS induced by Aβ25-35: significantly reduces
NSCs [3]; 20 μM Aβ25-35 + PEP1, 48 hours
  apoptosis-associated proteins: Bax, cytoplasmic cytochrome C, cleaved caspase-3: significantly decreased
  ki67 (protein associated with proliferation ability): concentration-dependently increased
  proliferation-associated proteins: P85a PI3K, pAKT (Ser 473), phosphorylated GSK3-3b (Ser 9), HSTF-1, cytoplasmic HMGB-1: recovered
NSCs [3]; immunostaining, 20 μM Aβ25-35 + PEP1 co-treatment
  HMGB1 expression in the cytoplasm: concentration-dependently recovered
GalC
  Galc: increased
[4]
  toxicity / side effects: stable in terms of side effects
